From ChEMBL document CHEMBL1201862, “PubChem BioAssay data set” (2004)
Activity calls are given as the source filed them.

Assays:
[1] = biological target: Mothers against decapentaplegic homolog 3 (Homo sapiens, UniProt P84022); assay: inhibitors of SMAD-driven TGF-beta signaling – dose response (AID 715); format: functional
[2] = biological target: Protein-tyrosine kinase 2-beta (Homo sapiens, UniProt Q14289);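 also: potency of inhibitors of PYK2 kinase phosphorylation of poly-GT substrate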
[3] = biological target: 26S proteasome non-ATPase regulatory subunit 14 (Homo sapiens, UniProt O00487); assay: inhibition of proteasome subunit RPN11 – biochemical, fluorescence polarization, uHTS hits, confirmation (AID 602368); format: functional
Sequence of 26S proteasome non-ATPase regulatory subunit 14 (O00487 whole entry): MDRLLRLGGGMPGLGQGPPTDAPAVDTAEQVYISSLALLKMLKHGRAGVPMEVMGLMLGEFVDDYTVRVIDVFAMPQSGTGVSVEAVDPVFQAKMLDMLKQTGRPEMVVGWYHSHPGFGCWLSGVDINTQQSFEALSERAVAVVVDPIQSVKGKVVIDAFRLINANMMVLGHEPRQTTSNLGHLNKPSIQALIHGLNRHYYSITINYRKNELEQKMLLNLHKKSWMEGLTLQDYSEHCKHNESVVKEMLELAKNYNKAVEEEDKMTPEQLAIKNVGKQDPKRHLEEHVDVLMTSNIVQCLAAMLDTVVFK

[4] = biological target: 72 kDa type IV collagenase (Homo sapiens, UniProt P08253); assay: Dose Response validation of uHTS RPN11 inhibitor hits using a MMP-2 Fluorescence assay.; format: functional
[5] = biological target: Prothrombin (Bos taurus, UniProt P00735); assay: thrombin protease inhibitors – biochemical, fluorescence polarization, uHTS hits, dose response (AID 602369); format: functional
[6] = biological target: Cytochrome P450 2C9 (Homo sapiens, UniProt P11712); conditions: Potency
Sequence of Cytochrome P450 2C9 (P11712 whole entry): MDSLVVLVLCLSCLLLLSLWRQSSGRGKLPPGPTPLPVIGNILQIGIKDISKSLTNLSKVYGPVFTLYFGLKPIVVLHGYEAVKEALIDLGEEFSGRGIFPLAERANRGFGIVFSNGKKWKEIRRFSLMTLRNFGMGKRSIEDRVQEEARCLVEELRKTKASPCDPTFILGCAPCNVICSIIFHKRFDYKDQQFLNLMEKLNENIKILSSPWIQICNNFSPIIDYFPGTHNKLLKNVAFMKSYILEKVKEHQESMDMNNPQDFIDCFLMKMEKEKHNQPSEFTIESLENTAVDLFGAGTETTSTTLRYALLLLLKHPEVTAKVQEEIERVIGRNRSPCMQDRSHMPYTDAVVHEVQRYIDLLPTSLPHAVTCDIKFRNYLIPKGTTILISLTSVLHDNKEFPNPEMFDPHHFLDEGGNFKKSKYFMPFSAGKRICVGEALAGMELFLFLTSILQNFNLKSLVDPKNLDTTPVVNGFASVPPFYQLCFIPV

[7] = biological target: Cytochrome P450 2D6 (Homo sapiens, UniProt P10635); assay: qHTS Assay for Inhibitors and Substrates of Cytochrome P450 2D6. [Related pubchem assays: 410 ]; format: ADME; conditions: read-out: Potency
Sequence of Cytochrome P450 2D6 (P10635 whole entry): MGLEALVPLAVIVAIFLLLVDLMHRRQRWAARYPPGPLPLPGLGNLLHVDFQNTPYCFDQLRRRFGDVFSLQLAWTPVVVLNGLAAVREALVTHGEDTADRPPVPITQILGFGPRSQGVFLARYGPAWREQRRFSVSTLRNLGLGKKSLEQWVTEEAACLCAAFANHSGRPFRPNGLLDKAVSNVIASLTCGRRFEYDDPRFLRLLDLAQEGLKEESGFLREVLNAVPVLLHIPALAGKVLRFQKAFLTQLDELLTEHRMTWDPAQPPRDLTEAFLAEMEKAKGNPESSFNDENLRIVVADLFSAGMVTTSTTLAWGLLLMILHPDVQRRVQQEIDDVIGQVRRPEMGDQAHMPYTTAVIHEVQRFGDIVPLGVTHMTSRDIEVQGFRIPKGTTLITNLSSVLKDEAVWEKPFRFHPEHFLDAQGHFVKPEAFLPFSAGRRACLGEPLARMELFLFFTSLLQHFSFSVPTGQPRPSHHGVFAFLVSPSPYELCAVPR

[8] = biological target: Protein Rev (Human immunodeficiency virus type 1 group M subtype B (isolate WMJ22)(HIV-1), UniProt P05866); assay: inhibitors of Rev protein–RRE RNA complex – biochemical, protein-RNA interaction, dose response (AID 842); parameters: species or system Human immunodeficiency virus 1
Sequence of Protein Rev (P05866 whole entry): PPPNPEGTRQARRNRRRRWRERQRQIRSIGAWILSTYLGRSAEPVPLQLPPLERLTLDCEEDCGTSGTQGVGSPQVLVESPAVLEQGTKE

[9] = test system: Streptococcus sp. 'group A'; assay: Streptococcus pyogenes SK(-)GAS viability under kanamycin – luminescence, BacTiterGlo, confirmation, counter-screen for streptokinase expression inhibitor project, dose response (AID 1900); format: functional, organism-based
[10] = biological target: T1, Streptokinase A (Streptococcus pyogenes serotype M1, UniProt P10520); assay: viability-normalized secreted streptokinase activity reduction – plasminogen activation absorbance, OD405, dose response (AID 1914); format: functional, Streptococcus pyogenes M1 GAS;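 also: secreted streptokinase activity via plasminogen activation per viability signal from cell pellet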
T1 sequence (P10520 whole entry): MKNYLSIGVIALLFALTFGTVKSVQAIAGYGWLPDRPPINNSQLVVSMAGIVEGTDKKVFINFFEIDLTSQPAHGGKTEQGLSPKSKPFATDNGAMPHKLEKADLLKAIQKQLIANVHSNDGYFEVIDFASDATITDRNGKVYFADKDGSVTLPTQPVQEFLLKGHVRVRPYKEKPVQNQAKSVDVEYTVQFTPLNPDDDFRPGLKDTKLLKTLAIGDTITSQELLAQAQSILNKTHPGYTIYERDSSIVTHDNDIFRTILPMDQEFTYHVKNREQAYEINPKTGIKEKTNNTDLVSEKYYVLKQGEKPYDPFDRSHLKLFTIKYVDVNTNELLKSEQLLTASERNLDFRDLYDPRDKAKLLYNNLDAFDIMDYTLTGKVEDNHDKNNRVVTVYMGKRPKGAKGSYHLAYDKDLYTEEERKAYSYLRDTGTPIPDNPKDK

[11] = CCR5-tropic HIV-1 fusion blockers – cell-based, CCR5-tropic Env, dose response (AID 2279); format: functional
[12] = test system: Streptococcus; assay: GAS UMAA2166 growth inhibition – luminescence, BacTiterGlo, counter-screen for streptokinase expression inhibitor project, dose response (AID 1915); format: functional, organism-based;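 also: potency for reduction of bacterial viability or growth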
[13] = biological target: T2, Microphthalmia-associated transcription factor (Homo sapiens, UniProt O75030); assay: reducers of TRPM1 reporter luminescence, concentration series – cell-based, SK-MEL-5, cherry-picked, set 3, MITF inhibitor project, dose response (AID 493073); format: functional;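 also: SK-MEL-5 melanoma cells with luciferase driven by the MITF target TRPM1 promoter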
T2 sequence (O75030 whole entry): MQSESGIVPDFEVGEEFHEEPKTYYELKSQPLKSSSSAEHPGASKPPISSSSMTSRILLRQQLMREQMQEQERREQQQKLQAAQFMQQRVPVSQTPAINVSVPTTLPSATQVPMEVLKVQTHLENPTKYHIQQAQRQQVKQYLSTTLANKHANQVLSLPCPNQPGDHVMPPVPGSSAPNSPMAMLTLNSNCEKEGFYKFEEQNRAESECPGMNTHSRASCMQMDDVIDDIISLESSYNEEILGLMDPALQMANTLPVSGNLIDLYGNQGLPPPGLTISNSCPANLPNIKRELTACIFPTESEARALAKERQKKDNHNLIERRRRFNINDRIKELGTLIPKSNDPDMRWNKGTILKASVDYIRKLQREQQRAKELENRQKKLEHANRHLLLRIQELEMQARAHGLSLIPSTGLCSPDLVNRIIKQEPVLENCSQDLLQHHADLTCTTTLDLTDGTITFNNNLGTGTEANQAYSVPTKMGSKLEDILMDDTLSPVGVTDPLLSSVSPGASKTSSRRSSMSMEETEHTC

[14] = biological target: Large T antigen (Simian virus 40, UniProt P03070); format: functional, Betapolyomavirus macacae;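 also: Confirmatory-stage PubChem screen for compounds that inhibit SV40 T antigen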
Sequence of Large T antigen (P03070 whole entry): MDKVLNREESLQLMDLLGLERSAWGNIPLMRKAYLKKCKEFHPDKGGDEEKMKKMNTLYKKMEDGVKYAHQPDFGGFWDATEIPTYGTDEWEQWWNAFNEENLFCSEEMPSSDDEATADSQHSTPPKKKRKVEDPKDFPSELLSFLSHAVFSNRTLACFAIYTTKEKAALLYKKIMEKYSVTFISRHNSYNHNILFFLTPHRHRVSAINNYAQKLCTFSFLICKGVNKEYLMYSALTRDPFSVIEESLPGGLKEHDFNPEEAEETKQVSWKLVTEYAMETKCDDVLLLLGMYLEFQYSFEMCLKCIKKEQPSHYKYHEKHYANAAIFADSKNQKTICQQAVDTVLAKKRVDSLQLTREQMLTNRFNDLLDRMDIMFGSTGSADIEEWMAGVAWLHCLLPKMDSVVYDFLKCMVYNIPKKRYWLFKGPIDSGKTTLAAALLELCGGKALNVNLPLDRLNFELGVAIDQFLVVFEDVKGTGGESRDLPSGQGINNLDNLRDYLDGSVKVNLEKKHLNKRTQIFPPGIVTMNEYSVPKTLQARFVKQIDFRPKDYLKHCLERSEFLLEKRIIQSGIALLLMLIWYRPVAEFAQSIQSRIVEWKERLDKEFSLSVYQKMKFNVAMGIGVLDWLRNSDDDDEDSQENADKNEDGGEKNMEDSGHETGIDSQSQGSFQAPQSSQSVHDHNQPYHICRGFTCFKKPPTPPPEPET

[15] = biological target: T3, Mannose-6-phosphate isomerase (Homo sapiens, UniProt P34949); assay: MPI enzyme activity inhibition – biochemical, fluorescence intensity, coupled assay, primary screen (AID 1209)
T3 sequence (P34949 whole entry): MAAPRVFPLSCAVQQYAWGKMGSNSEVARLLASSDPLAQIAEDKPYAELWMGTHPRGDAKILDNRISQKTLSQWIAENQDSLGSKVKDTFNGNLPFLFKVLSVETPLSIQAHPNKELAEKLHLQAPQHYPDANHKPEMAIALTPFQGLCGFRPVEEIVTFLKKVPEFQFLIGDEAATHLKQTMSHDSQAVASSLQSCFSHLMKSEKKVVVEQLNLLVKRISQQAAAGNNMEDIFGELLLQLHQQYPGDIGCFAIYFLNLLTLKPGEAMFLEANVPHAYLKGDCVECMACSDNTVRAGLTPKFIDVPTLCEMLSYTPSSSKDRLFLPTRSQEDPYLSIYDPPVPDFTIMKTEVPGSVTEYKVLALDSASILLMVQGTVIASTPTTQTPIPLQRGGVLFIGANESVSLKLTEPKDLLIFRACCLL

[16] = biological target: T3, Mannose-6-phosphate isomerase; assay: MPI inhibition at elevated mannose 6-phosphate – biochemical, fluorescence intensity, high mannose 6-phosphate, primary screen (AID 1220)
[17] = biological target: Endoplasmic reticulum aminopeptidase 1 (Homo sapiens, UniProt Q9NZ08); assay: inhibition of human ERAP1 enzyme activity – biochemical, cherry-pick, set 2, plate reader, dose response (AID 743314)
Sequence of Endoplasmic reticulum aminopeptidase 1 (Q9NZ08 whole entry): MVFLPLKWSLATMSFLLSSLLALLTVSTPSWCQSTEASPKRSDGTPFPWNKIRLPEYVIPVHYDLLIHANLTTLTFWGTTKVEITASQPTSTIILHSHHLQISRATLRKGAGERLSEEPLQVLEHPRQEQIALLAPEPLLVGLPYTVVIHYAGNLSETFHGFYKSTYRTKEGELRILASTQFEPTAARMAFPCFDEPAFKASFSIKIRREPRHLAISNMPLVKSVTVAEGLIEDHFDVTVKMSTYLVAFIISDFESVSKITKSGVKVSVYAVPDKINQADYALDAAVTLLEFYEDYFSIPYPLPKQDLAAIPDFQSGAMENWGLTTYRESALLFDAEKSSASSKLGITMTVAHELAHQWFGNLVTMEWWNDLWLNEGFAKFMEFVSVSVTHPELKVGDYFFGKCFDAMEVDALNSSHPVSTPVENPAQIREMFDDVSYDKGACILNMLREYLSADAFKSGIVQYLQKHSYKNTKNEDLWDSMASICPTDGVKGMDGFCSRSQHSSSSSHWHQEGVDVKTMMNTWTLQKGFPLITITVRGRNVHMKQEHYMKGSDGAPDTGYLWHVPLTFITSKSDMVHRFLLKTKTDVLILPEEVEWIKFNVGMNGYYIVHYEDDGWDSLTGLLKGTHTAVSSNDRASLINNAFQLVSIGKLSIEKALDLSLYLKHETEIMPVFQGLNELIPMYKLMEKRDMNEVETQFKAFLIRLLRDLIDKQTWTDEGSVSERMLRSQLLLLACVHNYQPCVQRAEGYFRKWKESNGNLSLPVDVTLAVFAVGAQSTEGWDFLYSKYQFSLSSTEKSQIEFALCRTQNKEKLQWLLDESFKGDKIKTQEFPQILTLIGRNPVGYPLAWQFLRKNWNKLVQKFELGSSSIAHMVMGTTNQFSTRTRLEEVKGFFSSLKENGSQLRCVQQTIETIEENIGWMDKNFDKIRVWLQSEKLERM

[18] = biological target: T4, Cytochrome P450 1A2 (Homo sapiens, UniProt P05177);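 also: PubChem cytochrome P450 panel assay, CYP1A2 panel member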
T4 sequence (P05177 whole entry): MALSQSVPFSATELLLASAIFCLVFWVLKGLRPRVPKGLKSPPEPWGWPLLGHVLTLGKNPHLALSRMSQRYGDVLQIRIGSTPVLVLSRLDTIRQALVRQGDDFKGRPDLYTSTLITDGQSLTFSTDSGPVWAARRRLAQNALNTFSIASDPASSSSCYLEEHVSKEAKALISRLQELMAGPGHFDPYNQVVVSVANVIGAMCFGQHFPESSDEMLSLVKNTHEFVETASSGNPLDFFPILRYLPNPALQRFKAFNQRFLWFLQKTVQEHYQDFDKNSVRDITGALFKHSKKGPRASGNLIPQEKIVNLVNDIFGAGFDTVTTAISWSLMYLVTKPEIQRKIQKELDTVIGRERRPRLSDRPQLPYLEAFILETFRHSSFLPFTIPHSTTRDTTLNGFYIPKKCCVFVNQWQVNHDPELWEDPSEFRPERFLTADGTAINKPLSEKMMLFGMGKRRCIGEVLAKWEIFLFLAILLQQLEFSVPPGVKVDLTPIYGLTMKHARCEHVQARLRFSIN

[19] = biological target: Cytochrome P450 3A4 (Homo sapiens, UniProt P08684);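 also: CYP3A4 tested as one member of a cytochrome P450 panel screen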
Sequence of Cytochrome P450 3A4 (P08684 whole entry): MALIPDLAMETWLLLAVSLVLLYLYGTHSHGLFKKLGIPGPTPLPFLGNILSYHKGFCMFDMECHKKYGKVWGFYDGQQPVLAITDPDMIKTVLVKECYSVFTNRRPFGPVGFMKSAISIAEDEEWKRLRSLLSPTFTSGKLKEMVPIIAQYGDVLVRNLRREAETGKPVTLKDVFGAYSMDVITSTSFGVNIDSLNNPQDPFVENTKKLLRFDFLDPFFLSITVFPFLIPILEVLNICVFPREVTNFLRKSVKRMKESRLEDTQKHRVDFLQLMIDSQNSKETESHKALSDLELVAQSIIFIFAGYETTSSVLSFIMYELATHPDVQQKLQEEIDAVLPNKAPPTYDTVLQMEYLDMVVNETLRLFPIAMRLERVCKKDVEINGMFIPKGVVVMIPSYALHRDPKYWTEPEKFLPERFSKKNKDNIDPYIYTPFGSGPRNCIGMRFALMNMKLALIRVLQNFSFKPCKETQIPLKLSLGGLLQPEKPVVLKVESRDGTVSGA

Sequence of Protein-tyrosine kinase 2-beta (Q14289 whole entry): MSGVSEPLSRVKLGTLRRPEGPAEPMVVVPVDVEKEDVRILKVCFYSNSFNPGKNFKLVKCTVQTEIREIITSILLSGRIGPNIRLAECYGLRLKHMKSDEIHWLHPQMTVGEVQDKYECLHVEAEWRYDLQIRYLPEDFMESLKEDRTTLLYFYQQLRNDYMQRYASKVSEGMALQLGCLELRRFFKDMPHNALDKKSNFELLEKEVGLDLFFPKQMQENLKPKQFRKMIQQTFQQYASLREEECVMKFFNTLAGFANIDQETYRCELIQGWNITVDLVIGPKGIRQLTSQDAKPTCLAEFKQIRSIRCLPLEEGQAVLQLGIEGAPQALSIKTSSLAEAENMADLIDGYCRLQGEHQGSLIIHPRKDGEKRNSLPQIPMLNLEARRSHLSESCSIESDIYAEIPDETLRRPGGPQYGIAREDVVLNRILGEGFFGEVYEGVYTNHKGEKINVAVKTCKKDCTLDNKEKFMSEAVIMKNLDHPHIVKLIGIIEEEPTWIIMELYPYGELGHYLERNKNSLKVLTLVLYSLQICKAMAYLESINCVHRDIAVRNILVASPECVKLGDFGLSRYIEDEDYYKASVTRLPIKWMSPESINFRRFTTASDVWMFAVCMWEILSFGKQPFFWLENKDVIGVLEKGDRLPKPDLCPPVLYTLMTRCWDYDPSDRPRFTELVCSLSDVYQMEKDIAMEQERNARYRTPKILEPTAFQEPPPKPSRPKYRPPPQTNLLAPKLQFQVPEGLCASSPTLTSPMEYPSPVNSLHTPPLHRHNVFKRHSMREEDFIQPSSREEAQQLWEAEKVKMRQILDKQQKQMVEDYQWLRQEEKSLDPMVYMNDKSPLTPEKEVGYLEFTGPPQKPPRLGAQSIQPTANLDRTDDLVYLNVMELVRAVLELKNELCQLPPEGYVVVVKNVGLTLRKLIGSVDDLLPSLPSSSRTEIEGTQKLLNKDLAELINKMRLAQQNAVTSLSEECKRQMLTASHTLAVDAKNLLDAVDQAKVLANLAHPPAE
Sequence of Mothers against decapentaplegic homolog 3 (P84022 whole entry): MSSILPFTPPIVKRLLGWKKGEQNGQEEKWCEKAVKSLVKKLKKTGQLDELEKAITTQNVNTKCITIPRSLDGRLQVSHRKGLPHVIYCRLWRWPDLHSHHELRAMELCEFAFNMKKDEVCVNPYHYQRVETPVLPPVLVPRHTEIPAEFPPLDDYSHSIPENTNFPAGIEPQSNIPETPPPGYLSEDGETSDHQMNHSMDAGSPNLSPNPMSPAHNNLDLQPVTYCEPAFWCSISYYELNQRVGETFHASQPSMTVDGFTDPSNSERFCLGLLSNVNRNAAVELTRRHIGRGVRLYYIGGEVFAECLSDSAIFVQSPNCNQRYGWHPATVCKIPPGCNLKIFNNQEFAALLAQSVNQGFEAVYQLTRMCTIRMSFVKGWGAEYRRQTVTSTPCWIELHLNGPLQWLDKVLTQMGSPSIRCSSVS

O=C(NCCCN1CCCCCC1)c1ccc(CS(=O)(=O)Cc2ccccc2F)o1
IC50 [1]: 4.1 µM (active) | IC50 [2]: 13.1 µM (not active) | IC50 [3]: 7.28 µM (active) | IC50 [4]: > 100 µM (inactive) | IC50 [5]: 68.8 µM (active)

CC[C@H](C)C(=O)O[C@@H]1CCC=C2C=C[C@H](C)[C@@H](CC[C@H]3C[C@@H](O)CC(=O)O3)[C@H]21
AC50 [6]: 39.8 µM (inconclusive)

COc1ccc(C[C@@H]2NC[C@H](O)[C@H]2OC(C)=O)cc1
AC50 [7]: 20 µM (inconclusive)

CC(C)CN=c1cc(-c2ccccc2)oc2ccc(Cl)cc12
IC50 [8]: > 79.4 µM (not active)

CCOc1cc(/C=N/Nc2cccc(C(=O)O)c2)ccc1OC(=O)c1ccccc1
EC50 [9]: 3.53 µM (active) | EC50 [10]: > 150 µM (not active) | IC50 [11]: 3.03 µM (active) | EC50 [12]: 17 µM (active) | AC50 [13]: 1.38 µM (active)

O=c1ccc2cc(O)c(O)cc2o1 [ESCULETIN]
IC50 [14]: 25.9 µM (active) | IC50 [15]: > 50 µM (not active) | IC50 [16]: > 50 µM (not active) | AC50 [17]: 9.72 µM (active) | AC50 [18]: 15.8 µM (inconclusive) | AC50 [19]: 12.6 µM (inconclusive)
